Among the test systems are 786-0; COLO 205; HCT-116; HT-29; K562; KM-20L2; NCI-H460; OVCAR-3; RPMI-8226; SK-MEL-28; SK-MEL-2; SK-MEL-5; SR; NCI-H23; UACC-257; A498; HOP-92; OVCAR-4; DU-145; MDA-N.
Holding throughout (experiment): growth of human tumour cells (NCI), 48 h

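Briefly, cells in 96-well plates were exposed to five compound concentrations for 48 h, and endpoints were estimated by linear interpolation. GI50 is the concentration that inhibits growth by half.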 Active and inactive are the calls of the source. Cut-off read from the data, not from the text of the source: active = GI50 up to about 1.1 µM and inactive = higher.

The record followed here is ChEMBL document CHEMBL1201862, “PubChem BioAssay data set” (2004).

As to `CCc1c(Cc2[nH]c(Cc3[nH]c(C=O)c(C)c3CC)c(CC)c2CC)[nH]c(C=O)c1C`, the GI50 in the assay with 786-0, in the assay on COLO 205, in the assay on HCT-116, in the assay with HT-29, with K562 and in the assay with KM-20L2 was > 100 µM (inactive) each time. In addition, the GI50 is > 100 µM (inactive) in the assay on NCI-H460; > 100 µM (inactive) with OVCAR-3; > 100 µM (inactive) with RPMI-8226; > 100 µM (inactive) in the assay on SK-MEL-28; > 10 µM (inactive) in the assay on SK-MEL-2; > 100 µM (inactive) in the assay on SK-MEL-5. Moreover, the GI50 in the assay with SR was > 100 µM (inactive).

For `O=C(O)c1ccccc1/N=N/c1ccc2oc(=O)c(C(=O)Nc3ccccc3)cc2c1`, the GI50 was 70.8 µM (inactive) in the assay on 786-0; 30.3 µM (inactive) in the assay on COLO 205; 29.6 µM (inactive) in the assay on HCT-116; 38.4 µM (inactive) in the assay on HT-29; 39.6 µM (inactive) with K562; 24.8 µM (inactive) in the assay on KM-20L2. The GI50 was 34 µM (inactive) in the assay with NCI-H23; 36.6 µM (inactive) in the assay with NCI-H460; 20.4 µM (inactive) in the assay with OVCAR-3; 19.1 µM (inactive) in the assay with RPMI-8226; 36.6 µM (inactive) in the assay on SK-MEL-28; 28.4 µM (inactive) in the assay on SK-MEL-5. Besides, the GI50 with UACC-257 is 24.6 µM (inactive).

Turning to `COC(=O)Cc1cc(=O)oc2c1C(=O)CCC2`, the GI50 in the assay on 786-0, in the assay on A498, in the assay with COLO 205, in the assay on HCT-116, in the assay on HOP-92 and with HT-29 was > 100 µM (inactive) in each case. In addition, the GI50 in the assay on K562, with KM-20L2, in the assay on NCI-H23, in the assay on NCI-H460, in the assay with OVCAR-3 and with OVCAR-4 was > 100 µM (inactive) each time. Further, the GI50 with RPMI-8226, in the assay with SK-MEL-28, in the assay with SK-MEL-2, in the assay on SK-MEL-5 and in the assay on UACC-257 was > 100 µM (inactive) throughout.

For the molecule `Cc1c(C(=O)/C=C/c2c(Cl)cccc2Cl)c(=O)n(-c2ccccc2)n1C`, the GI50 with 786-0 was 11.1 µM (inactive); in the assay on A498, 22.4 µM (inactive); in the assay with COLO 205, 13.9 µM (inactive); with HCT-116, 8.53 µM (inactive); in the assay on HOP-92, 17.6 µM (inactive); with HT-29 it was 18 µM (inactive). Besides, the GI50 in the assay on KM-20L2 was 19.6 µM (inactive); in the assay with NCI-H460 it was 11.4 µM (inactive); in the assay on OVCAR-3 it was 19.1 µM (inactive); with SK-MEL-28, 36.1 µM (inactive); with SK-MEL-2, 26.1 µM (inactive); in the assay on UACC-257 it was 20.9 µM (inactive).

Consider `C=C1C(=O)OC2C1CCC(=C)C1CC(O)C(=C)C12` (centres undefined), for which the GI50 with 786-0 is 5.5 µM (inactive); in the assay on A498, 20 µM (inactive); with COLO 205 it was 2.55 µM (inactive); in the assay on DU-145, 15 µM (inactive); in the assay with HCT-116, 12.7 µM (inactive); with HOP-92 it was 3.21 µM (inactive). Further, the GI50 with HT-29 is 5.57 µM (inactive); with K562, 5.09 µM (inactive); in the assay with MDA-N it was 11 µM (inactive); with NCI-H23, 18.7 µM (inactive); in the assay on NCI-H460, 18 µM (inactive); in the assay with OVCAR-3, 13.3 µM (inactive). Besides, the GI50 is 16.2 µM (inactive) in the assay on OVCAR-4; 5.78 µM (inactive) in the assay with RPMI-8226; 14.4 µM (inactive) in the assay on SK-MEL-28; 14.3 µM (inactive) in the assay on SK-MEL-2; 14.3 µM (inactive) in the assay on SK-MEL-5; 3.22 µM (inactive) in the assay on SR. In addition, in the assay with UACC-257, the GI50 was 12.9 µM (inactive).

Consider `Nc1cc(O)nc(SC2=NC(N)CC(O)C2)n1` (centres undefined), for which the GI50 with 786-0, in the assay on COLO 205, in the assay on HOP-92, with HT-29, in the assay with K562 and in the assay on KM-20L2 was > 100 µM (inactive) each time. Moreover, the GI50 in the assay with NCI-H23, with NCI-H460, with OVCAR-3, in the assay with OVCAR-4, in the assay on RPMI-8226 and with SK-MEL-28 was > 100 µM (inactive) each time. Besides, the GI50 in the assay on SK-MEL-2, in the assay with SK-MEL-5, in the assay on SR and with UACC-257 was > 100 µM (inactive) in each case.

In the case of `C[As](C)SCC(NC(=O)CCC(N)C(=O)O)C(=O)NCC(=O)O.c1ccncc1` (centres undefined), the GI50 in the assay with 786-0 is 0.0891 µM (active); in the assay with A498, 0.437 µM (active); in the assay with COLO 205 it was 0.105 µM (active); in the assay on DU-145, 0.0867 µM (active); in the assay with HCT-116, 0.198 µM (active); in the assay with HOP-92, 0.0843 µM (active). Moreover, the GI50 is 0.431 µM (active) with HT-29; 0.0266 µM (active) in the assay on K562; 0.0431 µM (active) with MDA-N; 0.284 µM (active) in the assay on NCI-H23; 2.38 µM (inactive) in the assay with NCI-H460; 0.0399 µM (active) in the assay on OVCAR-3. The GI50 in the assay on OVCAR-4 is 0.592 µM (active); with RPMI-8226 it was 0.0421 µM (active); with SK-MEL-28 it was 0.421 µM (active); in the assay with SK-MEL-2, 0.338 µM (active); with SK-MEL-5, 0.0966 µM (active); in the assay on SR, 0.02 µM (active). The GI50 with UACC-257 was 0.459 µM (active).

With `COC1OC(C)C(O)CC1OS(=O)(=O)c1ccc(C)cc1` (centres undefined), the GI50 with 786-0, in the assay on A498, with COLO 205, in the assay on HCT-116, with HOP-92 and in the assay with HT-29 was > 100 µM (inactive) in each case. The GI50 in the assay on K562, with KM-20L2, in the assay with NCI-H23, in the assay on NCI-H460, in the assay on OVCAR-3 and with OVCAR-4 was > 100 µM (inactive) throughout. Also, the GI50 in the assay with RPMI-8226, with SK-MEL-28, in the assay on SK-MEL-2, with SK-MEL-5 and in the assay on UACC-257 was > 100 µM (inactive) each time.

For the molecule `O=C(O)c1cc(/N=N/c2ccc([N+](=O)[O-])cc2)ccc1O`, the GI50 in the assay with 786-0 is 34.3 µM (inactive); in the assay on A498 it was 19.5 µM (inactive); in the assay on COLO 205, 30.8 µM (inactive); with DU-145, 38.3 µM (inactive); in the assay on HCT-116, 30.5 µM (inactive); in the assay with HOP-92 it was 18 µM (inactive). For the same molecule, the GI50 is 28.8 µM (inactive) in the assay with HT-29; 29.6 µM (inactive) with K562; 43.9 µM (inactive) in the assay on MDA-N; 40.2 µM (inactive) in the assay on NCI-H23; 28.2 µM (inactive) in the assay on NCI-H460; 15.6 µM (inactive) in the assay on OVCAR-3. For the same molecule, the GI50 is 23.9 µM (inactive) with OVCAR-4; 21.1 µM (inactive) in the assay on RPMI-8226; 37.7 µM (inactive) in the assay with SK-MEL-28; 26.5 µM (inactive) in the assay on SK-MEL-2; 34.6 µM (inactive) with SK-MEL-5; 29.4 µM (inactive) in the assay with SR. Besides, the GI50 in the assay on UACC-257 is 24 µM (inactive).

For `CC(C)(C)c1cc(C(P(=O)(O)O)P(=O)(O)O)cc(C(C)(C)C)c1O`, the GI50 in the assay with 786-0, in the assay with A498, in the assay on HCT-116, in the assay on HOP-92, in the assay on HT-29 and with K562 was > 100 µM (inactive) in each case. For the same molecule, the GI50 in the assay with KM-20L2, in the assay with NCI-H23, in the assay with NCI-H460, with OVCAR-3, with OVCAR-4 and with RPMI-8226 was > 100 µM (inactive) in each case. The GI50 with SK-MEL-28, in the assay on SK-MEL-2, with SK-MEL-5 and in the assay on UACC-257 was > 100 µM (inactive) each time.

On to `C[n+]1c(-c2ccc(/C=N/NC(=O)c3ccc(C(=O)N/N=C/c4ccc(-c5cn6ccccc6[n+]5C)cc4)cc3)cc2)cn2ccccc21`, for which the GI50 in the assay on 786-0 was 13.9 µM (inactive); with A498 it was 29.2 µM (inactive); in the assay on COLO 205, > 100 µM (inactive); in the assay on DU-145, > 100 µM (inactive); with HCT-116, > 100 µM (inactive); with HOP-92, > 100 µM (inactive). The GI50 in the assay on HT-29 is > 100 µM (inactive); in the assay on K562, > 100 µM (inactive); with MDA-N, > 70 µM (inactive); in the assay with NCI-H23, > 100 µM (inactive); in the assay on NCI-H460, > 100 µM (inactive); in the assay on OVCAR-3, > 100 µM (inactive). For the same molecule, the GI50 is > 100 µM (inactive) with OVCAR-4; > 100 µM (inactive) in the assay on RPMI-8226; > 100 µM (inactive) in the assay with SK-MEL-28; > 100 µM (inactive) in the assay with SK-MEL-2; > 67.9 µM (inactive) with SK-MEL-5; > 100 µM (inactive) with SR. Moreover, the GI50 with UACC-257 is > 63.7 µM (inactive).

With `C[C@]12CC[C@H](O)C[C@H]1CC[C@@H]1[C@@H]2CC[C@]2(C)[C@@H](C3=CC(=O)OC3)CC[C@]12O` [DIGITOXIGENIN], the GI50 in the assay with 786-0 was 0.0447 µM (active); with A498, 0.125 µM (active); in the assay on COLO 205 it was 0.44 µM (active); in the assay with DU-145, 0.04 µM (active); with HCT-116, 0.0251 µM (active); in the assay on HOP-92, 0.188 µM (active). In addition, the GI50 in the assay with HT-29 is 0.209 µM (active); with K562, 0.0536 µM (active); in the assay on MDA-N, 0.168 µM (active); in the assay on NCI-H23, 0.0338 µM (active); in the assay on NCI-H460 it was 0.0168 µM (active); with OVCAR-3, 0.0367 µM (active). The GI50 with OVCAR-4 is 0.0662 µM (active); in the assay with RPMI-8226, 0.0757 µM (active); with SK-MEL-28, 0.569 µM (active); with SK-MEL-2, 0.321 µM (active); with SK-MEL-5, 0.0447 µM (active); in the assay with SR, 0.0531 µM (active). For the same molecule, in the assay on UACC-257, the GI50 was 0.303 µM (active).
